Experiment [1] concerns HTRA2-specific interaction partners FNLA, NCKAP1, POTEE, PSMC1, SEC13. In words: Targeted MS analysis (accurate inclusion mass screening, AIMS) of HTRA2 Co-IP eluates. The arrangement: species or system house swine (Sus scrofa). The note with it: repeated Co-IP, n = 3 biological replicates, Figure S3, CDR p < 0.05, UCF-101 p > 0.05. The source says: Thereby, the peptides of interest were listed in the software inclusion list and the LTQ Orbitrap XL MS system only required MS/MS scans of the parent ions if the listed peptide was detected with an accurate mass and charge state. […] The selected peptides needed to be fully tryptic with a maximum of one missed cleavage, as described earlier. For this experiment, we repeated the Co-IP of the HTRA2-specific protein interaction partners ± treatments (see method Section 2.4) and subjected the respective eluate fractions to further in-solution trypsin digestion, as described elsewhere. In this case, the LTQ Orbitrap XL MS system was coupled online to an EASY-nLC 1200 system (Thermo Fisher Scientific, Rockford, IL, USA) using a PepMap C18 column system (75 µm × 500 mm; Thermo Fisher Scientific, Rockford, IL, USA). The dynamic exclusion mode was applied as follows: repeat count = 3, repeat duration = 30 s, exclusion size list = 100, exclusion time = 180 s, and the exclusion mass width ± 10 ppm. Protein identification and quantification were performed as described in Section 2.7.
For further validation of the HTRA2-specific interaction partners, we performed a targeted MS analysis via accurate inclusion mass screening (AIMS) technology. […] This time, the LC-MS system “only” recorded the unique peptide sequences of the previously identified HTRA2 interaction partners. […]

For a further experiment, the system named is HTRA2. The settings on record: immunoprecipitation experiments; cited from earlier work. The source says:
The mitochondrial serine protease HTRA2 has many versatile biological functions ranging from being an important regulator of apoptosis to being an essential component for neuronal cell survival and mitochondrial homeostasis. Loss of HTRA2 protease function is known to cause neurodegeneration, whereas overactivation of its proteolytic function is associated with cell death and inflammation.

For experiment [2], the system named is retinal ganglion cells (RGCs). The settings on record: cited from earlier work. The source says:
However, in a recent study of our group we identified the protein HTRA2 as a high-affinity interaction partner of the synthetic peptide […] [16]. Thereby, this synthetic peptide encodes a complementary-determining region 1 (CDR1) of polyclonal antibody molecules, which was originally identified as a potential biomarker candidate in primary-open angle glaucoma (POAG) patients.

Take “ASGYTFTNYGLSWVR [CDR, synthetic peptide encoding a complementary-determining region 1 (CDR1) of polyclonal antibody molecules]”: in experiment [1], the “Abundances of the co-enriched target proteins FNLA, NCKAP1, POTEE, PSMC1 and SEC13 compared with the HTRA2 group” value is recorded as “significantly diminished”. Moreover, the “Affinity for the target protein HTRA2” value in the experiment on HTRA2 is “high affinity”. Moreover, the “Effect on retinal ganglion cells (RGCs) in an organ culture model for glaucoma” value in experiment [2] is listed as “neuroprotective effects”.

On to `O=C1C(=Cc2ccc(-c3ccccc3[N+](=O)[O-])o2)C(=O)N(c2ccccc2)C(=S)N1c1ccccc1` [UCF-101, reference compound], for which the “Abundances of the co-enriched target proteins FNLA, NCKAP1, POTEE, PSMC1 and SEC13 compared with the HTRA2 group” value in experiment [1] is “slight decrease”.

The values above are taken from paper PMC8427973, “Regulation of the HTRA2 Protease Activity by an Inhibitory Antibody-Derived Peptide Ligand and the Influence on HTRA2-Specific Protein Interaction Networks in Retinal Tissues” (Biomedicines, 2021).
